Data reported in patent US6984635B1, “Dimerizing agents, their production and use” (Board of Trustees of The Leland Stanford Jr. University, priority 1998, dated 2006).

Assays:
Type in all cases: cell-based
[1] = molecular target: T1, Gal4-FKBP3 / FRB*-VP16 (FRB harboring T2098L, W2101F, and K2095P) (Homo sapiens, UniProt P42345+P62942, K2095P/T2098L/W2101F); test: activation of transcription in Jurkat cells transfected with Gal4-FKBP3, FRB*-VP16 and UAS-SEAP; conditions: for amplitude of reporter gene activity: FRB*-VP16, compared with rapamycin/wild type FRB-VP16 system; for EC50: FRB*-VP16 replaces wild type FRB-VP16, read-out: EC50 of reporter gene activity
T1 construct: FRB*-VP16 (FRB harboring T2098L, W2101F, and K2095P) replaces wild type FRB-VP16; expressed in transfected cells; host or cells: Jurkat cells
Description: (§1) The ability of the rapalogs to multimerize chimeric proteins may be measured in cell-based assays by measuring the occurrence of an event triggered by such multimerization. For instance, one may use cells containing and capable of expressing DNA encoding a first chimeric protein comprising one or more FKBP-domains and one or more effector domains as well as DNA encoding a second chimeric protein containing an FRB domain and one or more effector domains capable, upon multimerization, of actuating a biological response. We prefer to use cells which further contain a reporter gene under the transcriptional control of a regulatory element (i.e., promoter) which is responsive to the multimerization of the chimeric proteins. The design and preparation of illustrative components and their use in so engineered cells is described in WO96/41865 and the other international patent applications referred to in this and the foregoing section. The cells are grown or maintained in culture. A rapalog is added to the culture medium and after a suitable incubation period (to permit gene expression and secretion, e.g. several hours or overnight) the presence of the reporter gene product is measured. Positive results, i.e., multimerization, correlates with transcription of the reporter gene as observed by the appearance of the reporter gene product. The reporter gene product may be a conveniently detectable protein (e.g. by ELISA) or may catalyze the production of a conveniently detectable product (e.g. colored). Materials and methods for producing appropriate cell lines for conducting such assays are disclosed in the international patent applications cited above in this section. Typically used target genes include by way of example SEAP, hGH, beta-galactosidase, Green Fluorescent Protein and luciferase, for which convenient assays are commercially available.
Likewise, C3-allyl rapamycin and C3-methallyl rapamycin were impaired in their ability to activate transcription in Jurkat cells transfected with Gal4-FKBP3, wild type FRB-VP16, and UAS-SEAP. […] C3 derivatives of rapamycin have impaired toxicity (immunosuppressive activity) and can be used efficiently as dimerizers in conjunction with engineered FRB domains. Preparation of 24(S),30(S)-tetrahydro-C3-rapalogs [drawing 30]

[2] = molecular target: T2, Gal4-FKBP3 / wild type FRB-VP16 (Homo sapiens, UniProt P42345+P62942); test: activation of transcription in Jurkat cells transfected with Gal4-FKBP3, wild type FRB-VP16 and UAS-SEAP
T2 construct: Jurkat cells transfected with Gal4-FKBP3, wild type FRB-VP16, and UAS-SEAP; expressed in transfected cells; host or cells: Jurkat cells
Description: as §1, with “The reporter gene product may be a conveniently detectable protein (e.g. by ELISA) or may catalyze the production of a conveniently detectable product (e.g. colored). Materials and methods for producing appropriate cell lines for conducting such assays are disclosed in the international patent applications cited above in this section. Typically used target genes include by way of example SEAP, hGH, beta-galactosidase, Green Fluorescent Protein and luciferase, for which convenient assays are commercially available.” left out

CTLL-2 cells = test: inhibition of proliferation of CTLL-2 cells (toxicity)
Method: The toxicity of the lead compounds was tested by their ability to inhibit the proliferation of CTLL-2 cells, which are IL-2 dependent and highly sensitive to rapamycin (IC50<1 nM).

T1 sequence (P62942 2-108 limits assumed): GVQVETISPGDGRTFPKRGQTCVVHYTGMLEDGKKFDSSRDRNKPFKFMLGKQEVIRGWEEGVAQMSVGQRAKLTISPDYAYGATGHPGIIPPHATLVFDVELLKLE
T1 sequence (P42345 2012-2144 K2095P/T2098L/W2101F limits assumed): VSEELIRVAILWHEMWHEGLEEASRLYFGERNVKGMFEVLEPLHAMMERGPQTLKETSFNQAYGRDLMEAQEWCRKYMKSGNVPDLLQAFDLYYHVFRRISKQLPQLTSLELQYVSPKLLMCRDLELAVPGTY
T2 sequence (P62942 2-108 limits assumed): as the sequence (P62942 2-108 limits assumed) above
T2 sequence (P42345 2012-2144 limits assumed): as the sequence (P42345 2012-2144 K2095P/T2098L/W2101F limits assumed) above, with P84K, L87T, F90W counted along it

Row | EC50 [1] [nM] | ability to activate transcription (SEAP reporter) [2] | Compound | amplitude of reporter gene activity [1] | effect on proliferation of CTLL-2 cells (CTLL-2 cells; incubation with 1 μM compound) | IC50 (CTLL-2 cells; IL-2 dependent CTLL-2 cells) [nM]
1 | ~10 | impaired | C=CCC1C=CC(C)=CCC2CCC(C)C(O)(O2)C(=O)C(=O)N2CCCCC2C(=O)OC(C(C)CC2CCC(O)C(OC)C2)CC(=O)C(C)C=C(C)C(O)C(OC)C(=O)C(C)CC(C)C=C1 (centres unmarked) [C3-allyl rapamycin, 3-allyl-rapamycin] | higher than that elicited by the rapamycin/wild type FRB-VP16 system | – | –
2 | ~10 | impaired | C=C(C)CC1C=CC(C)=CCC2CCC(C)C(O)(O2)C(=O)C(=O)N2CCCCC2C(=O)OC(C(C)CC2CCC(O)C(OC)C2)CC(=O)C(C)C=C(C)C(O)C(OC)C(=O)C(C)CC(C)C=C1 (centres unmarked) [C3-methallyl rapamycin, 3-methallyl-rapamycin] | higher than that elicited by the rapamycin/wild type FRB-VP16 system | no detectable effect | –
3 | – | – | Rapamycin [reference compound] | – | – | < 1
